The source of these data is paper PMC4850449, “Bufexamac ameliorates LPS-induced acute lung injury in mice by targeting LTA4H” (Scientific Reports, 2016).

The term IC50 denotes the midpoint of a concentration-inhibition curve. Higher therefore signals lower potency.

This assay addresses T1, LTA4H (leukotriene A4 hydrolase) (Homo sapiens, UniProt P09960).
T1 sequence (P09960 2-611): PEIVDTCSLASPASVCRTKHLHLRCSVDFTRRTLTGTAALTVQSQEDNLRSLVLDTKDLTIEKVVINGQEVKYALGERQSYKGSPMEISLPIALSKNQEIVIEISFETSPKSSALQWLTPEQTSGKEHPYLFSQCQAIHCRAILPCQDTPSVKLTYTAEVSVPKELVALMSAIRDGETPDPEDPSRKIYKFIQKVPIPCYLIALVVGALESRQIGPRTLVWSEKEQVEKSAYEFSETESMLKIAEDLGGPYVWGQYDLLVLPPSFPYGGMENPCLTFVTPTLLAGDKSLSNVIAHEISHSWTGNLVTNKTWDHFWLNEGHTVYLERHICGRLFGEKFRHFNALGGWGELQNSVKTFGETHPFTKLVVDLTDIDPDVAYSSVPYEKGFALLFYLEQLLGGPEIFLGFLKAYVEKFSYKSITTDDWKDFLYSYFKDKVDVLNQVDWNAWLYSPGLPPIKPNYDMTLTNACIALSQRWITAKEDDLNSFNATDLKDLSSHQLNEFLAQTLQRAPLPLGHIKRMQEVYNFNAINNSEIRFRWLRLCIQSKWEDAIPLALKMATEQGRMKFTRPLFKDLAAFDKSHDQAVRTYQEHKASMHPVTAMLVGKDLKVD
The assay is described as follows: X-ray co-crystal structure ([…] Å); purified enzyme inhibition (epoxide hydrolase IC50 […], aminopeptidase IC50 […]). It is filed as biochemical.

On to `CCCCOc1ccc(CC(=O)NO)cc1` [Bufexamac], for which the IC50 stood at 11.6 µM.
